Data: patent US12692247B2, “Phenyl- and pyridopyrazole derivatives as inhibitors of DDR1” (Redx Pharma Limited, priority 2021, dated 2026)

Tests used:
Recombinant human DDR1 = molecular target: T1, Recombinant human DDR1 (Homo sapiens, UniProt Q08345); experiment: LanthaScreen Eu Kinase Binding Assay, DDR1; conditions: recombinant human DDR1 (2.5 nM; aa440-876, GST tag), Kinase Tracer 178 5 nM, time-resolved fluorescence, at least two independent replicates; read-out: DDR1 pIC50 (converted)
T1 construct: Recombinant human DDR1 (2.5 nM; aa440-876 containing a GST tag)
T1 sequence (Q08345 440-876 isoform Q08345-2): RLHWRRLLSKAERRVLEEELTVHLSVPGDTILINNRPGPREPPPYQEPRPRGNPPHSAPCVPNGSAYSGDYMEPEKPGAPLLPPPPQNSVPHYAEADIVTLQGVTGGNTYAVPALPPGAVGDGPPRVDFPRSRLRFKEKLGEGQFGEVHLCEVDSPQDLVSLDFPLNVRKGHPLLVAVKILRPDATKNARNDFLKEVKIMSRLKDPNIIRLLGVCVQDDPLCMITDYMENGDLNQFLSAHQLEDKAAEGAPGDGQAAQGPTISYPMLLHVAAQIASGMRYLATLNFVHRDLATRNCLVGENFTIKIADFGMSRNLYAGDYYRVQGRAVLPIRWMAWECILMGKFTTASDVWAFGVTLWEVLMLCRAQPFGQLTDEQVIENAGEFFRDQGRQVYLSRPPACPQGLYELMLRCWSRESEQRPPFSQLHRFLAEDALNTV
Procedure, shortened: (§1)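 GST-tagged kinase domains (DDR1 aa440-876 at 2.5 nM; DDR2 aa427-855 at 1.75 nM) were preincubated 30 min at room temperature with compound in HEPES pH 7.3 buffer. Then 1 nM Eu-anti-GST plus Tracer 178 (5 nM DDR1, 10 nM DDR2) were added; after 60 min, TR-FRET gave IC50 by four-parameter fit, ≥2 replicates.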

Recombinant human DDR2 = molecular target: T2, Recombinant human DDR2 (Homo sapiens, UniProt Q16832); experiment: LanthaScreen Eu Kinase Binding Assay, DDR2; conditions: recombinant human DDR2 (1.75 nM; aa427-855, GST tag), Kinase Tracer 178 10 nM, time-resolved fluorescence, at least two independent replicates; read-out: DDR2 pIC50 (converted)
T2 construct: DDR2 (1.75 nM; aa427-855 containing a GST tag)
T2 sequence (Q16832 427-855): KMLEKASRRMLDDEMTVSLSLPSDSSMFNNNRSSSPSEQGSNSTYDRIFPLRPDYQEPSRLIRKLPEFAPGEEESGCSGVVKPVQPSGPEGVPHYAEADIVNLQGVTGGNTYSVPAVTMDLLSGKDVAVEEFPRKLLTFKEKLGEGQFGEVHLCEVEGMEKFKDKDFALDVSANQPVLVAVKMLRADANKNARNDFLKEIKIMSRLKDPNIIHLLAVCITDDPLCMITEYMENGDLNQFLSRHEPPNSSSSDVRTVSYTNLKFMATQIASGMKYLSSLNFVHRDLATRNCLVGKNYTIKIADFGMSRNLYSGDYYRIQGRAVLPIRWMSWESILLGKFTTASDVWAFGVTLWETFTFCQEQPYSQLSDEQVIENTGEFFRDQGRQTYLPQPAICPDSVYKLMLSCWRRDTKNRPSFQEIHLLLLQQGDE
Procedure, shortened: as §1

| SMILES | IC50 (Recombinant human DDR1) | IC50 (Recombinant human DDR2) |
| --- | --- | --- |
| C[C@H](NC(=O)Cn1ccc2cccc(N(C)c3ccc4c(cnn4C)c3)c2c1=O)C(F)(F)F [Example 143, 2-[8-[methyl-(1-methylindazol-5-yl)amino]-1-oxo-2-isoquinolyl]-N-[(1S)-2,2,2-trifluoro-1-methyl-ethyl]acetamide] | 10 to 100 nM | 100 to 1000 nM |
| Cc1n[nH]c2cc(Nc3cccc4ccn(CC(=O)Nc5cnoc5)c(=O)c34)ccc12 [Example 158, N-isoxazol-4-yl-2-[8-[(3-methyl-1H-indazol-6-yl)amino]-1-oxo-2-isoquinolyl]acetamide] | 10 to 100 nM | 10 to 100 nM |
